According to patent publication US9200008B2 (ASKA PHARMACEUTICAL CO., LTD., priority 2010, dated 2015):

Test system: Human prostate cancer cell lines (PC-3 cells)
Experiment: Measurement of cell death-inducing activity (Test Example 1)
Type: cell-based
Settings: PC-3, 48 h, 48 hours after addition, tested at 10, 1, 0.1, 0.025 and 0.00625 μmol/L, qualitative evaluation of 10 fields, read-out: Concentration showing the cell death-inducing activity (cell death-inducing rate not less than 40%)
In short: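 Compound treatment lasted 48 h at 10 to 0.00625 μmol/L (five levels, DMSO as control) on PC-3 cells pre-cultured 48 h at 37 °C, 5% CO2 after seeding at 1×10^5 cells/well. A cell death-inducing rate of 40% or more counted as active.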

| Structure (SMILES) | minimal effective concentration [µM] |
| --- | --- |
| COc1ccc(COC(=S)Nc2sc(-c3ccc(Cl)cc3OC)nc2C)cc1 [Example 28-1, [2-(4-Chloro-2-methoxyphenyl)-4-methylthiazol-5-yl]thiocarbamic acid O-(4-methoxybenzyl)ester] | 10 |
| CCn1nc(-c2ccc(Cl)cc2Cl)cc1NC(=O)OC(C)c1ccc2c(c1)ncn2C (centres unmarked) [Example 9-337] | 10 |
| CCn1c(C)nc2cc(COC(=O)Nc3sc(-c4ccc(C)cc4OC)nc3C)ccc21 [Example 9-87] | 0.025 |
| CCn1ncc2cc(COC(=O)Nc3sc(-c4ccc(C)cc4C)nc3C)ccc21 [Example 9-139] | 0.025 |
| COc1ccc(-c2cc(NC(=O)OCc3ccc4c(c3)ncn4C)n(C)n2)c(OC)c1 [Example 9-230] | 0.025 |
| CCc1nc(-c2ccc(C)cc2OC)sc1NC(=O)OCc1ccc2c(c1)nnn2C [Example 9-372] | 0.00625 |
| CCc1nc(-c2ccc(Cl)cc2C)sc1NC(=O)OCc1ccc2nn(CC)cc2c1 [Example 9-370] | 0.1 |
| CCc1nc(-c2ccc(C)cc2C)sc1NC(=O)OCc1ccc2c(c1)ncn2CC [Example 9-166] | 0.025 |
| CCn1cnc2cc(NC(=O)OCc3cc(-c4ccc(F)cc4OC)nn3C)ccc21 [Example 13-82] | 0.025 |
| Cc1nc(-c2ccccc2)sc1NC(=O)OCc1ccc2c(c1)ncn2C [Example 9-32] | 1 |
| CCn1c(C)nc2cc(NC(=O)OCc3sc(-c4ccc(Cl)cc4C)nc3C)ccc21 [Example 13-21] | 0.1 |
| Cc1ccccc1-c1cc(NC(=O)OCc2ccc3c(cnn3C)c2)n(C)n1 [Example 9-277] | 10 |
| COc1ccc(/C=N/NC(=O)c2cnc(-c3ccc(Cl)cc3)[nH]2)cc1O [Example 25-1, 2-(4-Chlorophenyl)-3H-imidazole-4-carboxylic acid[1-(3-hydroxy-4-methoxyphenyl)methylidene]hydrazide] | 10 |
| COc1cc(C)ccc1-c1cc(COC(=O)Nc2ccc3c(c2)nc2n3CCCC2)sn1 [Example 47-6] | 0.025 |
| CCn1cc2cc(NC(=O)OCc3sc(-c4ccc(F)cc4C)nc3C)ccc2n1 [Example 13-54] | 0.1 |
| COc1ccc(/C=N/NC(=O)c2sc(-c3cccc(Cl)c3Cl)nc2C)cc1O [Example 23-15] | 0.1 |
| COc1ccc(CN(C)NC(=O)c2sc(-c3ccc(Cl)cc3Cl)nc2C)cc1 [Example 16-10] | 1 |
| CCn1nc(-c2ccc(Cl)c(Cl)c2)cc1NC(=O)OCc1ccc2c(c1)ncn2C [Example 9-211] | 10 |
| COc1cc(Cl)ccc1-c1nc(C)c(NC(=O)OCc2ccc3c(cnn3C)c2)s1 [Example 9-128] | 0.00625 |
| CCn1nc(-c2ccc(C)cc2C)cc1COC(=O)Nc1ccc2c(c1)nc1n2CCCC1 [Example 13-123] | 0.025 |
| COc1ccc(/C=C/C(=O)Nc2sc(-c3ccc(Cl)cc3OC)nc2C)cc1 [Example 34-1, N-[2-(4-Chloro-2-methoxyphenyl)-4-methylthiazol-5-yl]-3-(4-methoxyphenyl)acrylamide] | 1 |
| COc1cc(C)ccc1-c1cc(COC(=O)Nc2ccc3c(c2)ncn3C)n(C)n1 [Example 13-88] | 0.00625 |
| COc1ccc(CN(C)NC(=O)c2sc(-c3ccc(Cl)cc3OC)nc2C)cc1OC [Example 16-16] | 1 |
| COc1ccc(CN(C)NC(=O)c2sc(-c3ccc(OC)cc3Cl)nc2C)cc1 [Example 16-9] | 10 |
| CCn1nc(-c2ccccc2OC)cc1COC(=O)Nc1ccc2c(c1)nc1n2CCOC1 [Example 13-96] | 0.1 |

| Structure (SMILES) | minimal effective concentration [µM] |
| --- | --- |
| COc1cc(F)ccc1-c1cc(NC(=O)OCc2ccc3nn(C)cc3c2)n(C)n1 [Example 9-290] | 0.1 |
| CCn1cc2ccc(COC(=O)Nc3cc(-c4ccc(C)cc4C)nn3C)cc2n1 [Example 9-304] | 1 |
| COc1cc(F)ccc1-c1nc(C)c(NC(=O)OCc2ccc3c(c2)ncn3C(C)C)s1 [Example 9-70] | 0.1 |
| CCn1nc(-c2ccc(C)cc2OC)cc1COC(=O)Nc1ccc2c(c1)nc1n2CCC1 [Example 13-113] | 0.00625 |
| Cc1cc(Cl)ccc1-c1nc(C)c(COC(=O)Nc2ccc3c(c2)nc2n3CCSC2)s1 [Example 43-2] | 0.025 |
| COc1cc(F)ccc1-c1nc(C)c(NC(=O)OCc2ccc3c(c2)nc(C)n3C)s1 [Example 9-75] | 0.1 |
| CCn1cnc2cc(COC(=O)Nc3sc(-c4ccc(Cl)cc4OC)nc3C)ccc21 [Example 9-59] | 0.00625 |
| CCn1ncc2cc(COC(=O)Nc3sc(-c4ccc(Cl)cc4C)nc3C)ccc21 [Example 9-141] | 0.025 |
| COc1cc(C)ccc1-c1nc(C)c(NC(=O)OCc2ccc3c(c2)nc2n3CCC(O)C2)s1 (centres unmarked) [Example 9-342] | 1 |
| COc1ccc(/C=N/NC(=O)c2sc(-c3cccc4c3OCCO4)nc2C)cc1O [Example 23-154] | 10 |
| COc1cc(F)ccc1-c1cc(NC(=O)OCc2ccc3c(c2)nc2n3CCOC2)n(C)n1 [Example 9-245] | 0.025 |
| COc1cc(Cl)ccc1-c1nc(C)c(NC(=O)OCc2ccc3c(c2)nc2n3CCC2)s1 [Example 9-103] | 0.00625 |
| CCn1cnc2cc(COC(=O)Nc3sc(-c4cccc(C)c4)nc3C)ccc21 [Example 9-54] | 1 |
| Cc1nc2cc(NC(=O)OCc3sc(-c4ccc(Cl)cc4C)nc3C)ccc2s1 [Example 42-2, (2-Methylbenzothiazol-5-yl)carbamic acid 2-(4-chloro-2-methylphenyl)-4-methylthiazol-5-ylmethyl ester] | 1 |
| COc1ccc(-c2nc(C)c(NC(=O)OCc3ccc4c(c3)nc3n4CCOC3)s2)c(OC)c1 [Example 9-95] | 0.025 |
| CCc1nc(-c2ccccc2OC)sc1NC(=O)OCc1ccc2nn(CC)cc2c1 [Example 9-367] | 1 |
| Cn1nc(-c2ccccc2C(F)(F)F)cc1NC(=O)OCc1ccc2c(cnn2C)c1 [Example 9-278] | 10 |
| Cc1cc(F)ccc1-c1nc(C)c(COC(=O)Nc2ccc3c(c2)nc2n3CCOC2)s1 [Example 13-25] | 0.025 |
| CCc1nc(-c2ccc(C)cc2OC)sc1NC(=O)OCc1ccc2nn(CC)cc2c1 [Example 9-368] | 0.1 |
| COc1cc(C)ccc1-c1cc(COC(=O)Nc2ccc3c(c2)nc2n3CCC2)n(C)n1 [Example 13-112] | 0.00625 |
| COc1ccccc1-c1nc(C)c(C(=O)N/N=C/c2ccc3occc3c2)s1 [Example 23-159] | 0.1 |
| Cc1cccc(-c2nc(C)c(C(=O)N/N=C/c3ccc4c(c3)OCO4)s2)c1C [Example 23-43] | 1 |
| COc1cc(Cl)ccc1-c1nc(C)c(C(=O)N/N=C/c2cccc3[nH]ccc23)s1 [Example 23-94] | 1 |
| CCn1cc2cc(COC(=O)Nc3sc(-c4ccc(Cl)cc4OC)nc3C)ccc2n1 [Example 9-154] | 0.025 |
| CCn1ncc2cc(COC(=O)Nc3cc(-c4ccc(Cl)cc4OC)ns3)ccc21 [Example 45-4] | 10 |
